Measurements from patent publication US12351571B2, “Substituted quinoxaline compounds as inhibitors of FGFR tyrosine kinases” (ARRAY BIOPHARMA INC., priority 2018, dated 2025).

Columns and labels:
[1] = target: phosphorylated FGFR3 (Homo sapiens (Human), UniProt P22607); assay: FGFR Enzyme Binding Assay (HTRF tracer displacement), FGFR3; settings: 5 nM phosphorylated FGFR3, 60 minute incubation at 22° C.; read-out: FGFR3 Enz Binding IC50
Method: (§1) The potency of compounds inhibiting human isoforms of FGFR kinase was determined using Life Technologies' Homogeneous Time Resolved Fluorescence (HTRF)-based binding assay technology. An incubation was conducted with either 5 nM dephosphorylated FGFR1 (Array Biopharma, p1702; SEQ ID NO: 1, amino acids 458 to 765, dephosphorylated by co-expression with PTP1b (protein tyrosine phosphatase 1B)), 5 nM dephosphorylated FGFR2 (Life Technologies, Cat. No. PV4106 that had been dephosphorylated with Lambda protein phosphatase (New England Biolabs, cat #P0753)) or 5 nM phosphorylated FGFR3 (Array Biopharma, p1836; SEQ ID NO: 5, amino acids 449 to 759), 50 nM Kinase Tracer 236 (Life Technologies Cat. No. PR9078A), 2 nM Biotin-anti-6HIS (Life Technologies Cat. No. PV6090) and 2 nM Europium-Streptavidin (Life Technologies Cat. No. PV6025) along with test compound in a buffer consisting of 50 mM HEPES ((4-(2-hydroxyethyl)-1-piperazineethanesulfonic acid, pH 7.5), 5 mM MgCl2, 0.005% Triton X-100, 1 mM DTT, 1 mM NaVO4 and 2% DMSO in a final volume of 12 μL Compounds were typically prepared as a 3-fold or 4-fold serial dilution in DMSO and added to the assay to give the appropriate final concentration. After a 60 minute incubation at 22° C., the extent of tracer displacement was determined using a PerkinElmer EnVision multimode plate reader via HTRF dual wavelength detection, and the percent of control (POC) was calculated using a ratiometric emission factor. One hundred POC was determined using no test compound, and 0 POC was determined in the presence of 1 μM of an appropriate control inhibitor. A 4-parameter logistic curve was fit to the POC values as a function of the concentration of compound, and the IC50 value was the point where the best-fit curve crossed 50 POC.

[2] = target: recombinant human FGFR2 cytoplasmic domain (Homo sapiens (Human), UniProt P21802); assay: FGFR Enzyme Activity Assay (LanthaScreen TR-FRET), FGFR2; assay type: biochemical; settings: 15 μM ATP, 20 minute incubation; read-out: FGFR2 Enz FRET IC50
Sequence of recombinant human FGFR2 cytoplasmic domain (P21802 402-821): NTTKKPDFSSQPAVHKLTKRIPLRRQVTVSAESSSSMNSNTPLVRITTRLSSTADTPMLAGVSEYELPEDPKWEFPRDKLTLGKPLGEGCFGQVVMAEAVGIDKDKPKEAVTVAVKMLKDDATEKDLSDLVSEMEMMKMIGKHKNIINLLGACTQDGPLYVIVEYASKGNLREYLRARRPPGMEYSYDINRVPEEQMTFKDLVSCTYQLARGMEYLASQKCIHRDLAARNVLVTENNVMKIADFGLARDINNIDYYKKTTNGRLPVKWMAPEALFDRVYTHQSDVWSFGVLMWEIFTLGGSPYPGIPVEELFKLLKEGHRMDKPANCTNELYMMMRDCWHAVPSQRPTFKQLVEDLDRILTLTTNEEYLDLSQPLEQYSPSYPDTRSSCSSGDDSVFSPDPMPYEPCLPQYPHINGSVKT
Method: FGFR2 kinase activity was measured by the Invitrogen LanthaScreen™ Assay technology which directly measures the amount of substrate phosphorylation by TR-FRET using a flourescently-labeled peptide and Europium-labeled antibody. Briefly, 200 pM His-tagged recombinant human FGFR2 cytoplasmic domain (amino acids 403-822) (Life Technologies Cat. No. PR5332A) was incubated with 100 nM Alexa Fluor® 647-Poly-GT Peptide Substrate (Life Technologies Cat. No. PV5836) and 15 μM ATP along with test compound in a buffer consisting of 250 mM HEPES, 25 mM MgCl2, 0.05% TritonX-100, pH 7.5, and 2% DMSO. Compounds were typically prepared in a threefold serial dilution in DMSO and added to the assay to give the appropriate final concentration. After a 20 minute incubation at 22° C., an equal volume of 2 nM LanthaScreen® Eu-PY20 Antibody (Life Technologies Cat. No. PV5691) and 10 mM EDTA were added to quench the kinase reaction and start the detection reaction. After an additional 60 minute incubation at 22° C., the reaction was measured using a PerkinElmer EnVision multimode plate reader via TR-FRET dual wavelength detection, and the percent of control (POC) calculated using a ratiometric emission factor. 100 POC was determined using no test compounds and 0 POC was determined using no enzyme. The POC values were fit to a 4-parameter logistic curve as a function of the concentration of the compound, and the IC50 value is the point where the curve crosses 50 POC.

[3] = target: dephosphorylated FGFR1 (Homo sapiens (Human), UniProt P11362); assay: FGFR Enzyme Binding Assay (HTRF tracer displacement), FGFR1; settings: 5 nM dephosphorylated FGFR1, 60 minute incubation at 22° C.; read-out: FGFR1 Enz Binding IC50
Sequence of dephosphorylated FGFR1 (P11362 458-765): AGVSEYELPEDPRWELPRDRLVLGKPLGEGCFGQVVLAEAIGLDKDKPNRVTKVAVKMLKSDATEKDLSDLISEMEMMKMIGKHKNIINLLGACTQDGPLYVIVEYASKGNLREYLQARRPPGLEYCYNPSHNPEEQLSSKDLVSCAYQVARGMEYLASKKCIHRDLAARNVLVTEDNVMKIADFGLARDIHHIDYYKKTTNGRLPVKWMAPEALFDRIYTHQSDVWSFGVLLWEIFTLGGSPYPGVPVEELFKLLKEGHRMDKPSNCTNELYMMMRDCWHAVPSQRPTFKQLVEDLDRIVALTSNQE
Method: as §1

[4] = target: human wild type FGFR1 (Homo sapiens (Human), UniProt P11362); assay: FGFR1 pERK Cell Assay; assay type: cell-based; settings: HEK-293 cells, 1 hour compound, 100 ng/ml human FGF-acidic; maximum concentration 5 μM
Sequence of human wild type FGFR1 (P11362 22-822): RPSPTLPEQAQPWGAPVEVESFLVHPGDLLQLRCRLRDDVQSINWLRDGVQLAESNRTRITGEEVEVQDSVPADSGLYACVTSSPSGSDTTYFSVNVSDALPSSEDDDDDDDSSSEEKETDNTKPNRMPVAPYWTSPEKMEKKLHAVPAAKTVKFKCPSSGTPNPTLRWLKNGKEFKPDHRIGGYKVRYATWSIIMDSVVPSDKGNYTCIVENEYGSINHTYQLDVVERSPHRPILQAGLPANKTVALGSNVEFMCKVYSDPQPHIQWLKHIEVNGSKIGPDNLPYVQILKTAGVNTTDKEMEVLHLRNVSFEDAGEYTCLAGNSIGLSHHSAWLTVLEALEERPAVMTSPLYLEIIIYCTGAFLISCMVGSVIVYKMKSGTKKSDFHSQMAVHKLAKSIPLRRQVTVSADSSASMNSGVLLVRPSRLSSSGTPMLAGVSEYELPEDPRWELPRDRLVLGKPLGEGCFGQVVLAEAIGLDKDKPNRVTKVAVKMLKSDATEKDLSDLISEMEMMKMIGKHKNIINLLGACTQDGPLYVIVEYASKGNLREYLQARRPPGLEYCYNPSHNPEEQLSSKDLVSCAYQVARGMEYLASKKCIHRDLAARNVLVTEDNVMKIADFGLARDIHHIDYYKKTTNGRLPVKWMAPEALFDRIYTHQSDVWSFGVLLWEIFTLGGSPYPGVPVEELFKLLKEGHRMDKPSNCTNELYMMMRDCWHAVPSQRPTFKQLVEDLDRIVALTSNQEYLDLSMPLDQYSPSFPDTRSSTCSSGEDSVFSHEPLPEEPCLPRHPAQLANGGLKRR
Method: HEK-293 cells transfected with doxycycline(dox)-inducible human wild type FGFR1 (SEQ ID NO: 1) were plated in a collagen or poly-D-lysine coated 96 well flat bottom plates at 4×10^5 cells/well in complete Dulbecco's Modified Eagle Medium (DMEM) containing 10% FBS and 1 μg/ml doxycycline and allowed to attach for 24 h at 37° C., 5% CO2. Cells were treated with compound using 1:3 serial dilutions with a maximum final concentration of 5 μM. Compound was incubated on cells for 1 hour at 37° C., 5% CO2. Cells were then stimulated with a final concentration of 100 ng/ml human FGF-acidic (R&D Systems Cat number 232-FA/CF) for 5 minutes at 37° C., 5% CO2. Medium was removed, and cells were lysed with lysis buffer containing phosphatase and protease inhibitors. Phospho ERK1/2 was measured using the Meso Scale Discovery sandwich assay (Meso Scale Discovery cat. no. K151DWD). The assay captures phospho ERK1/2 and detects with a sulfo-tagged total ERK1/2 antibody. The chemiluminescent signal was read on the Sector Imager Plate reader. 100 POC was determined using no test compound and 0 POC was determined using a control compound. The POC values were fit to a 4-parameter logistic curve as a function of the concentration of the compound, and the IC50 value is the point where the curve crosses 50 POC.

Sequence of phosphorylated FGFR3 (P22607 449-759): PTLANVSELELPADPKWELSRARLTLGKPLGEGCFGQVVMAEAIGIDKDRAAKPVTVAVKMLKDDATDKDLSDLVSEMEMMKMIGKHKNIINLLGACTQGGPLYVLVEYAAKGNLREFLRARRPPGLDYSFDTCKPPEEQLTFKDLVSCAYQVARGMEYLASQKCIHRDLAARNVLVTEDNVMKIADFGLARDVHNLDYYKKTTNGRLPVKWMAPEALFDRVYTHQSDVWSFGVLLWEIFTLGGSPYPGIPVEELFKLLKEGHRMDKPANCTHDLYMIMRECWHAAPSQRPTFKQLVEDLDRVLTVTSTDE

IC50 [1] [nM] | IC50 [2] [nM] | IC50 [3] [nM] | IC50 [4] [nM] | SMILES
327 | 1740 | 759 | – | C=CC(=O)N1CC(C(=O)N2CCN(c3cccc(-c4cnc5ccc(Nc6cc(OC)cc(OC)c6)cc5n4)c3)CC2)C1 [Example 25, 1-(3-(4-(3-(7-((3,5-dimethoxyphenyl)amino)-quinoxalin-2-yl)phenyl)-piperazine-1-carbonyl)-azetidin-1-yl)prop-2-en-1-one]
5 | 107 | 53 | ≥ 5000 | COc1cc(Nc2ccc3ncc(-c4cnn([C@@H]5CCN(C(=O)C6CN(C(=O)/C=C/CN(C)C)C6)C5)c4)nc3c2)cc(OC)c1 [Example 20, (R,E)-1-(3-(3-(4-(7-((3,5-dimethoxyphenyl)amino)-quinoxalin-2-yl)-1H-pyrazol-1-yl)pyrrolidine-1-carbonyl)azetidin-1-yl)-4-(dimethylamino)but-2-en-1-one]
6 | 12 | 13 | 128 | C=CC(=O)N1CC(O)(C(=O)N2CCC(n3cc(-c4cnc5ccc(N(C)c6cc(OC)cc(OC)c6)cc5n4)cn3)CC2)C1 [Example 27, 1-(3-(4-(4-(7-((3,5-dimethoxyphenyl)(methyl)amino)quinoxalin-2-yl)-1H-pyrazol-1-yl)piperidine-1-carbonyl)-3-hydroxyazetidin-1-yl)prop-2-en-1-one]
2 | 11 | 22 | 507 | C=CC(=O)N1CC(C(=O)N2CCC(n3cc(-c4cnc5ccc(Nc6cc(OC)cc(OC)c6)cc5n4)cn3)CC2)C1 [Example 1, 1-(3-(4-(4-(7-((3,5-dimethoxyphenyl)amino)quinoxalin-2-yl)-1H-pyrazol-1-yl)piperidine-1-carbonyl)azetidin-1-yl)prop-2-en-1-one]
4 | 11 | 24 | 852 | C=CC(=O)N1CC[C@@H](C(=O)N2CCC(n3cc(-c4cnc5ccc(Nc6cc(OC)cc(OC)c6)cc5n4)cn3)CC2)C1 [Example 2, (R)-1-(3-(4-(4-(7-((3,5-dimethoxyphenyl)amino)-quinoxalin-2-yl)-1H-pyrazol-1-yl)piperidine-1-carbonyl)pyrrolidin-1-yl)-prop-2-en-1-one]
3 | 159 | 34 | 225 | C=CC(=O)N1CC(CN2CCC(n3cc(-c4cnc5ccc(Nc6cc(OC)cc(OC)c6)cc5n4)cn3)CC2)C1 [Example 30, 1-(3-((4-(4-(7-((3,5-dimethoxyphenyl)amino)quinoxalin-2-yl)-1H-pyrazol-1-yl)piperidin-1-yl)methyl)azetidin-1-yl)prop-2-en-1-one]
4 | 166 | 55 | 1280 | COc1cc(Nc2ccc3ncc(-c4cnn([C@@H]5CCN(C(=O)C6(F)CN(C(=O)/C=C/CN(C)C)C6)C5)c4)nc3c2)cc(OC)c1 [Example 19, (R,E)-1-(3-(3-(4-(7-((3,5-dimethoxyphenyl)amino)-quinoxalin-2-yl)-1H-pyrazol-1-yl)pyrrolidine-1-carbonyl)-3-fluoro-azetidin-1-yl)-4-(dimethyl-amino)but-2-en-1-one]
4 | 84 | 131 | 898 | COc1cc(Nc2ccc3ncc(-c4cn(C5CCN(C(=O)C6(F)CN(C(=O)/C=C/CN(C)C)C6)CC5)nc4C)nc3c2)cc(OC)c1 [Example 22, (E)-1-(3-(4-(4-(7-((3,5-dimethoxyphenyl)amino)-quinoxalin-2-yl)-3-methyl-1H-pyrazol-1-yl)-piperidine-1-carbonyl)-3-fluoroazetidin-1-yl)-4-(dimethylamino)but-2-en-1-one]
5 | 12 | 26 | 350 | C=CC(=O)N1CCC(C(=O)N2CCC(n3cc(-c4cnc5ccc(Nc6cc(OC)cc(OC)c6)cc5n4)cn3)CC2)CC1 [Example 3, 1-(4-(4-(4-(7-((3,5-dimethoxyphenyl)amino)-quinoxalin-2-yl)-1H-pyrazol-1-yl)piperidine-1-carbonyl)piperidin-1-yl)prop-2-en-1-one]
3 | 33 | 48 | 149 | C=CC(=O)N1CC(C#N)(C(=O)N2CCC(n3cc(-c4cnc5ccc(Nc6cc(OC)cc(OC)c6)cc5n4)cn3)CC2)C1 [Example 12, 1-acryloyl-3-(4-(4-(7-((3,5-dimethoxyphenyl)-amino)quinoxalin-2-yl)-1H-pyrazol-1-yl)-piperidine-1-carbonyl)-azetidine-3-carbonitrile]
335 | 1910 | 6620 | – | COc1cc(Nc2ccc3ncc(-c4ccc(N5CCN(C(=O)C6(F)CN(C(=O)/C=C/CN(C)C)C6)CC5)nc4C)nc3c2)cc(OC)c1 [Example 13, (E)-1-(3-(4-(5-(7-((3,5-dimethoxyphenyl)amino)-quinoxalin-2-yl)-6-methylpyridin-2-yl)-piperazine-1-carbonyl)-3-fluoroazetidin-1-yl)-4-(dimethylamino)but-2-en-1-one]
5 | 187 | 38 | 1890 | C=CC(=O)N1CC(C(=O)N2CC[C@@H](n3cc(-c4cnc5ccc(Nc6cc(OC)cc(OC)c6)cc5n4)cn3)C2)C1 [Example 21, (R)-1-(3-(3-(4-(7-((3,5-dimethoxyphenyl)amino)-quinoxalin-2-yl)-1H-pyrazol-1-yl)pyrrolidine-1-carbonyl)azetidin-1-yl)prop-2-en-1-one]
5 | 118 | 102 | 423 | COc1cc(Nc2ccc3ncc(-c4cnn(C5CCN(C(=O)C6(F)CN(C(=O)/C=C/CN(C)C)C6)CC5)c4C)nc3c2)cc(OC)c1 [Example 17, (E)-1-(3-(4-(4-(7-((3,5-dimethoxyphenyl)amino)-quinoxalin-2-yl)-5-methyl-1H-pyrazol-1-yl)piperi-dine-1-carbonyl)-3-fluoroazetidin-1-yl)-4-(dimethylamino)but-2-en-1-one]
3 | 40 | 33 | 170 | C=CC(=O)N1CC(F)(C(=O)N2CCC(n3cc(-c4cnc5ccc(Nc6cc(OC)cc(OC)c6)cc5n4)cn3)CC2)C1 [Example 4, 1-(3-(4-(4-(7-((3,5-dimethoxyphenyl)amino)-quinoxalin-2-yl)-1H-pyrazol-1-yl)piperidine-1-carbonyl)-3-fluoro-azetidin-1-yl)prop-2-en-1-one]
